According to US10501494B2, “Uses of peptides to treat brain injury and disease” (priority 2013, dated 2019):
Where two headings read alike, the source gives them in different places.

Assays:
CCR2 (MCP-1) = molecular target: T1, CCR2 (MCP-1) (Homo sapiens, UniProt P41597); test: MCP-1 elicited chemotaxis of human monocytes, all-D-pentapeptides (FIG. 2); assay type: cell-based; settings: 20 pM peptide for 30 minutes, MCP-1 0.6 nM for 2 hours, purified human monocytes
T1 construct: Purified human monocytes were treated with 20 pM of All-D-pentapeptides; endogenous in cells; host or cells: purified human monocytes
Text: A representative experiment is shown comprising triplicate determinations and is presented as relative fluorescence units, Mean±SEM.

[1] = tested on: chemokine receptor 8 (CCR8); test: Blocking of chemokine receptor 8; assay type: cell-based
Text: The peptides share activity to block diverse chemokine receptors. […] Thus again, with a different receptor target, the all-D peptide performs very similarly to its mostly L-amino acid prototype first described in Pert, 1986. (FIG. 3).

[2] = tested on: microglial and astrocytes; settings: daily peripheral administration, hippocampus; cited from earlier work
[3] = Survival of MethA ascites tumor-bearing mice treated with LPS; assay type: in vivo; settings: 1 mg/Kg, 50 μgm LPS i.p.; vehicle control 5/20
Protocol: Associated with the injection of LPS is the extensive production of tumor necrosis factor alpha (TNF-α). Mice injected with recombinant human TNF-α develop pilo erection of the hair (ruffling), diarrhea and a withdrawn and unkempt appearance, followed by death if sufficient amounts are given. Rats treated with TNF become hypotensive, tachypneic and die of sudden respiratory arrest. Administration of DAPTA (1 mg/Kg) to MethA ascites tumor-bearing mice that were treated with 50 μgm LPS by i.p. injection, had better survival (15/20 in the DAPTA treated group compared to 5/20 in the vehicle control treated group). Thus DAPTA blocks septic shock via innate immune pathways, like the Toll receptors, that cause inflammation in the brain and that are typically activated in injuries.

inflammatory cytokines [4] = settings: Hu; Ruff, 2003; cited from earlier work
[5] = molecular target: CCL2 (MCP-1) chemotaxis, CCR5/CCR2 (Homo sapiens, UniProt P41597); settings: human monocytes, FIG. 1
Text: Triplicate determinations were made and results are expressed as the mean plus or minus SEM. The experiment shown is a direct comparison among all RAPs. Statistical analysis was by unpaired t-test, with significance set at the p<0.01 (*) level for difference from CCL2 only chemotaxis.

inflammatory cytokines [6] = settings: Rat; Padi, 2012; cited from earlier work
[7] = nerve injury model; Padi; cited from earlier work
inflammatory cytokines [8] = settings: Rat; unpublished
MIP-1β (CCL4)/CCR5 = MIP-1β (CCL4)/CCR5 (Homo sapiens, UniProt P51681); settings: low (sub-pM) concentrations, MIP-1β 50 ng/mL, monocytes treated with GM-CSF for 48 hours
Text: It is compared for biopotency with an all-D amino acid close analog whereby all of the amino acids are made in the D form (RAP-310) to block the CCR5 chemokine receptors.
Data are the average of triplicate determinations. Data are presented as Mean±SEM.

CCL2/CCR2 = CCL2/CCR2 (Homo sapiens, UniProt P41597); settings: human monocytes
Sequence of CCL2/CCR2 (P41597 whole entry): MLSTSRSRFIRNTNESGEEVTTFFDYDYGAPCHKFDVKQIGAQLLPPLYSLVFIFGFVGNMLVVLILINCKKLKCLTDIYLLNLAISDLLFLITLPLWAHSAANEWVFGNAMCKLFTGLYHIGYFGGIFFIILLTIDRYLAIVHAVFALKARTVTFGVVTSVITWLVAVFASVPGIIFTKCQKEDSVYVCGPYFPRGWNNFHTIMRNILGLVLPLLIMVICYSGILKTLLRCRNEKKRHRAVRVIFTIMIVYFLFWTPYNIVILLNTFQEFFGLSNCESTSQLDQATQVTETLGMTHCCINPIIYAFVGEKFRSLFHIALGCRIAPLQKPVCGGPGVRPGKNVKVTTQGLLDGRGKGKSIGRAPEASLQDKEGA

T1 sequence (P41597 whole entry): as above
Sequence of CCL2 (MCP-1) chemotaxis, CCR5/CCR2 (P41597 whole entry): as above
Sequence of MIP-1β (CCL4)/CCR5 (P51681 whole entry): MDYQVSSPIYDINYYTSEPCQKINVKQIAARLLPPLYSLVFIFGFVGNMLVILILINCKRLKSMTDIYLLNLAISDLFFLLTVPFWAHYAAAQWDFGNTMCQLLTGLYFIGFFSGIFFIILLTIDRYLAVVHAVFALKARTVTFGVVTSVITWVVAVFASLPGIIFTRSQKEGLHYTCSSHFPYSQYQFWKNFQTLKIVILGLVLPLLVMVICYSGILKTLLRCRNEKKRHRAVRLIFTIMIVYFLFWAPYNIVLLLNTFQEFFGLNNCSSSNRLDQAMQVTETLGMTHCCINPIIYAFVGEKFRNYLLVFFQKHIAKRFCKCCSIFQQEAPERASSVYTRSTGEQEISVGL

Compound: Ile-Asn-Asn-Tyr-Thr (INNYT; Human immunodeficiency virus)
- inhibition of MCP-1 elicited chemotaxis (CCR2 (MCP-1)): efficacious

Compound: C[C@@H](N)C(=O)N[C@@H](CO)C(=O)N[C@H](C(=O)N[C@H](C(=O)N[C@H](C(=O)N[C@@H](CC(N)=O)C(=O)N[C@@H](Cc1ccc(O)cc1)C(=O)N[C@H](C(N)=O)[C@@H](C)O)[C@@H](C)O)[C@@H](C)O)[C@@H](C)O [RAP-101, D-Ala1-STTTNYT-NH2]
- blocking of CCR8 [1]: blocks
- inflammatory response induced by LPS (number and reactive state of microglial and astrocytes, NFkB expression) [2]: dramatically attenuated
- survival [3]: 15/20
- IL-1 change (inflammatory cytokines [4]): decrease
- IL-6 change (inflammatory cytokines [4]): decrease
- IL-8 change (inflammatory cytokines [4]): decrease
- TNF-α change (inflammatory cytokines [4]): decrease
- potency to block CCL2 (MCP-1) chemotaxis [5]: most potent

Compound: Ser-Ser-Thr-Tyr-Arg (SSTYR; Human immunodeficiency virus)
- inhibition of MCP-1 elicited chemotaxis (CCR2 (MCP-1)): efficacious

Compound: Glu-Thr-Trp-Tyr-Ser (ETWYS; Human immunodeficiency virus)
- inhibition of MCP-1 elicited chemotaxis (CCR2 (MCP-1)): efficacious

Compound: Thr-Thr-Ser-Tyr-Thr (TTSYT; Human immunodeficiency virus)
- inhibition of MCP-1 elicited chemotaxis (CCR2 (MCP-1)): efficacious

Compound: Asn-Thr-Ser-Tyr-Gly (NTSYG; Human immunodeficiency virus)
- inhibition of MCP-1 elicited chemotaxis (CCR2 (MCP-1)): efficacious

Compound: C[C@H](O)[C@@H](N)C(=O)N[C@@H](C(=O)N[C@H](CC(N)=O)C(=O)N[C@H](Cc1ccc(O)cc1)C(=O)N[C@@H](C(=O)O)[C@H](C)O)[C@H](C)O [RAP-103, All-D-TTNYT]
- IL-1β change (inflammatory cytokines [6]): decrease
- IL-6 change (inflammatory cytokines [6]): decrease
- inflammation, cytokine secretion and monocyte infiltration [7]: blocks
- CCL2 change (inflammatory cytokines [8]): decrease
- CCL3 change (inflammatory cytokines [8]): decrease
- CCR2 change (inflammatory cytokines [8]): decrease
- CCR5 change (inflammatory cytokines [8]): decrease
- MCP-1 change (inflammatory cytokines [8]): decrease
- MIP-1α change (inflammatory cytokines [8]): decrease
- TNF-α change (inflammatory cytokines [8]): decrease

Compound: Asn-Thr-Ser-Tyr-Arg (NTSYR; Human immunodeficiency virus)
- inhibition of MCP-1 elicited chemotaxis (CCR2 (MCP-1)): efficacious

Compound: C[C@H](O)[C@@H](NC(=O)[C@@H](Cc1ccc(O)cc1)NC(=O)[C@@H](CC(N)=O)NC(=O)[C@H](NC(=O)[C@H](NC(=O)[C@H](NC(=O)[C@@H](CO)NC(=O)[C@@H](C)N)[C@H](C)O)[C@H](C)O)[C@H](C)O)C(=O)O [RAP-310]
- potency to block CCR5-mediated human monocyte chemotaxis (MIP-1β (CCL4)/CCR5): comparable potency
- blocking of CCR8 [1]: comparable potency
- loss of potency in blocking CCL2-elicited chemotaxis compared to RAP-101 (CCL2/CCR2): minimal loss of potency

Compound: Ile-Asp-Asn-Tyr Thr (IDNYT; Human immunodeficiency virus)
- inhibition of MCP-1 elicited chemotaxis (CCR2 (MCP-1)): efficacious

Compound: Asn-Thr-Arg-Tyr-Arg
- inhibition of MCP-1 elicited chemotaxis (CCR2 (MCP-1)): efficacious
